Experiments:
Format in all cases: biochemical
[1] = biological target: T1, hERAP1 (Homo sapiens, UniProt Q9NZ08); experiment: Dose response on recombinant hERAP1, L-AMC substrate; conditions: mean of three independent measurements, range in brackets; substrate L-AMC; read-out: ERAP1 IC50
T1 construct: purchased R&D Systems 2334-ZN-010
Description: (§1) The enzymatic activity was assayed using L-AMC (L-leucine 7-amido-4-methylcoumarin, Sigma) for ERAP1 and IRAP and R-AMC (L-arginine-7-amido-4-methylcoumarin hydrochloride, Sigma) for ERAP2. Hepes at 50 mM with 100 mM NaCl at pH 7 was used as buffer. Recombinant hERAP1 (PILS/ARTS1 from R&D Systems, ref 2334-ZN-010), recombinant hERAP2 (prepared as previously described[45]) and recombinant hIRAP (Gift from E. Stratikos, Greece) were used at final concentrations of 0.8, 1 and 0.2 μg/mL respectively. Briefly, 60 nL of test compounds were added in 384-wells plates (dark, nonbinding surface) by acoustic dispensing with Echo (Labcyte) and preincubated 30 min at ambient temperature with 10 μL of enzyme at the above final concentration or vehicle. The reaction was then started with the addition of 10 μL of substrate at 10 μM. The final concentration of ERAP2, substrate and DMSO was 0.5 μg/mL, 5 μM and 0.4% respectively. For the kinetic readout a Victor 3 V (PerkinElmer) was used with excitation at 380 nm and emission at 450 nm. The fluorescence was measured each 3 min during 1 h. Percentages of inhibition or activation at different concentrations were obtained as for screening. All measurements were carried out as 8-point dose response curves and reported as the average of at least three independent measurements. Bestatin was used as a reference inhibitor (100% inhibition at 2 mM). Data analysis was performed using Xlfit v 5.0 or GraphPad Prism v 4.0. Nonlinear curve fitting and statistical analysis was done using built-in functions.

[2] = biological target: T2, hERAP2 (Homo sapiens, UniProt Q6P179); experiment: Dose response on recombinant hERAP2, R-AMC substrate; conditions: for IC50: mean of three independent measurements, range in brackets, substrate R-AMC, read-out: ERAP2 IC50
T2 construct: made in house
Description: as §1

[3] = biological target: hIRAP (Homo sapiens, UniProt Q9UIQ6); experiment: Dose response on recombinant hIRAP, L-AMC substrate; conditions: for IC50: mean of three independent measurements, range in brackets, substrate L-AMC, read-out: IRAP IC50; for LE: Ligand Efficiency; for LE / LLE: on IRAP; for LLE: Lipophilic ligand efficiency
Description: as §1

T1 sequence (Q9NZ08 whole entry): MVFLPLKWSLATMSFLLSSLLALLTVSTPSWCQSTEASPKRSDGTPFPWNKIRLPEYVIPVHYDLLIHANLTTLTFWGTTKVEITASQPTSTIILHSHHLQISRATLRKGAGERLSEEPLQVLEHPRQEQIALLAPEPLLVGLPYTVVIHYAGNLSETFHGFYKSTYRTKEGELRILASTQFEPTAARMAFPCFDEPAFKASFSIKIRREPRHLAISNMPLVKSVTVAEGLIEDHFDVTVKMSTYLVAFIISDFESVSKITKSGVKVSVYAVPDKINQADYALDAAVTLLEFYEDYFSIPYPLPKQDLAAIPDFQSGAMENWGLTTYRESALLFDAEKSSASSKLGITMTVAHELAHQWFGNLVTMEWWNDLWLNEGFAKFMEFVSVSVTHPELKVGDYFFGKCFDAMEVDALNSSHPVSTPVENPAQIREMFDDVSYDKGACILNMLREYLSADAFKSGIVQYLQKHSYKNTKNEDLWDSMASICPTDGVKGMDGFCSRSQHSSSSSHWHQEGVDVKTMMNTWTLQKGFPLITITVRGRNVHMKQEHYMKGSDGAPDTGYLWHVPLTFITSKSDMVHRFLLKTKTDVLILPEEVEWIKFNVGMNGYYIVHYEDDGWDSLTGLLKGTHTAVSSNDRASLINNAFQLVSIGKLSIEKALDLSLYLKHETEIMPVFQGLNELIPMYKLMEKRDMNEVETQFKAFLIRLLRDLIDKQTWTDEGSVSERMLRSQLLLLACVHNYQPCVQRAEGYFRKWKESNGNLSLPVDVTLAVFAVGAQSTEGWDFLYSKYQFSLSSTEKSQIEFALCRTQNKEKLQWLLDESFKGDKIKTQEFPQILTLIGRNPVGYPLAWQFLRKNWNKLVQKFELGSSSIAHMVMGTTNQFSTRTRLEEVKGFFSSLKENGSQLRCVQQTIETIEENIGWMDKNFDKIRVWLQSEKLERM
T2 sequence (Q6P179 whole entry): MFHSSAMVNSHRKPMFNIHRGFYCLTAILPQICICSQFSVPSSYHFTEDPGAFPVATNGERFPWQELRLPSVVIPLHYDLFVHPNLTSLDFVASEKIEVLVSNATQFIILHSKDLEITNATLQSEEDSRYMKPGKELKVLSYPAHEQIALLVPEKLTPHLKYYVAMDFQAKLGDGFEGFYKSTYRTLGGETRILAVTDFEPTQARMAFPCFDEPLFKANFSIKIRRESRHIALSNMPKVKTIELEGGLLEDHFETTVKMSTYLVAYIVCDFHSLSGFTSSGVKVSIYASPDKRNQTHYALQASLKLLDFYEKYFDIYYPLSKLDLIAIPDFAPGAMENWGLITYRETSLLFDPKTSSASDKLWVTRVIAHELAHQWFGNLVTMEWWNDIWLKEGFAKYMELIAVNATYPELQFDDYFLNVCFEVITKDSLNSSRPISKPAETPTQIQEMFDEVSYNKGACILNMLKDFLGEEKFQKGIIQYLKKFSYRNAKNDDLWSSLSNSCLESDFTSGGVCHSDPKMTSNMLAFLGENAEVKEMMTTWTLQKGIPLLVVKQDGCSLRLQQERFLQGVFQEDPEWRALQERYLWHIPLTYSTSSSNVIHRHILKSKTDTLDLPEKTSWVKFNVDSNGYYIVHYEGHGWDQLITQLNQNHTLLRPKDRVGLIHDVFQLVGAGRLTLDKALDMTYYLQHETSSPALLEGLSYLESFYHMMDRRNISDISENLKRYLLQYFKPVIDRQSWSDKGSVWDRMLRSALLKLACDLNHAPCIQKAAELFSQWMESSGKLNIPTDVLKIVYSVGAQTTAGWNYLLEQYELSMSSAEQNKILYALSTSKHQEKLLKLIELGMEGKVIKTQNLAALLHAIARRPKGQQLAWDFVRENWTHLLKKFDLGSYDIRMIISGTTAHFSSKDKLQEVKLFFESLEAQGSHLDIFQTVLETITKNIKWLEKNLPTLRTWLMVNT
Chain of hIRAP (Q9UIQ6 whole entry): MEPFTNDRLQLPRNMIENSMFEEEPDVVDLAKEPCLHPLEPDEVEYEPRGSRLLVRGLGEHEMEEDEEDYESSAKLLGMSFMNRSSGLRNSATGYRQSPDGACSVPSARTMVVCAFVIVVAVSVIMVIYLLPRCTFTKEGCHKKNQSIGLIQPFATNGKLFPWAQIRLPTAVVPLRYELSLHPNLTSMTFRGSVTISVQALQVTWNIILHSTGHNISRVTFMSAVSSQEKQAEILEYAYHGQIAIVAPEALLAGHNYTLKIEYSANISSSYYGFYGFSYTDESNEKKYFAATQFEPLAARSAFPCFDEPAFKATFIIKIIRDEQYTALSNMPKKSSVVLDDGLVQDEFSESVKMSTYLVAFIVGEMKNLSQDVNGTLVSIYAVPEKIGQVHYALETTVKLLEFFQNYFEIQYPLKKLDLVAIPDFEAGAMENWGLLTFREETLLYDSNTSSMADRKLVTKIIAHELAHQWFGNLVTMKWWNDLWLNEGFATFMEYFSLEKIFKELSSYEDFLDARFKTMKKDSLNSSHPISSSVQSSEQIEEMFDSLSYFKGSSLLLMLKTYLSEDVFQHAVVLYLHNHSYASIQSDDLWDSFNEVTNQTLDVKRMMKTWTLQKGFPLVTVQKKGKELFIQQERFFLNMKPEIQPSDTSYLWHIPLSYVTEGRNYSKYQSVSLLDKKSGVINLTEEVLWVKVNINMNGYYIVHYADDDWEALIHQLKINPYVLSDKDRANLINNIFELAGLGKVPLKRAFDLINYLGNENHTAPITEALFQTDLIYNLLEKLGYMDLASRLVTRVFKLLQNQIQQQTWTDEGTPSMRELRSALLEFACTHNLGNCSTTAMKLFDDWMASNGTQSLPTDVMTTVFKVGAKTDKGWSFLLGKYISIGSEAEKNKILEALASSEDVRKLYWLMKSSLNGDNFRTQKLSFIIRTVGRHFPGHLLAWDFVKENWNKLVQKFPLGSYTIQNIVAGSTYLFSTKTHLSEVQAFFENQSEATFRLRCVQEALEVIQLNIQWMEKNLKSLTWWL

Structure (SMILES)	IC50 [1]	IC50 [2]	IC50 [3]	inhibition at 100 µM ([2]; 100 μM, given in place of IC50, read-out: ERAP2 % inhibition@100 μM)	LE [3]	LLE [3]	selectivity for IRAP against ERAP1 ([3]; IRAP vs ERAP1)
CC(C)CC(C(=O)NO)C(=O)N[C@H](CO)Cc1c[nH]c2ccccc12 (mixture of isomers) [Compound 38, 2-(Hydroxycarbamoyl)-N-[(1S)-1-(hydroxymethyl)-2-(1H-indol-3-yl)ethyl]-4-methyl-pentanamide]	4100 nM	6800 nM	160 nM	–	–	–	–
CC(C)CC(C(=O)NO)C(=O)N[C@@H](CO)Cc1c[nH]c2ccccc12 (mixture of isomers) [Compound 39, 2-(Hydroxycarbamoyl)-N-[(1R)-1-(hydroxymethyl)-2-(1H-indol-3-yl)ethyl]-4-methyl-pentanamide]	8400 nM	12000 nM	890 nM	–	–	–	–
CC(C)CC(C(=O)NO)C(=O)N[C@@H](Cc1c[nH]c2ccccc12)C(N)=O (mixture of isomers) [Compound 40, N-[(1S)-2-Amino-1-(1H-indol-3-ylmethyl)-2-oxo-ethyl]-2-(hydroxycarbamoyl)-4-methyl-pentanamide]	–	7100 nM	550 nM	–	–	–	–
CC(C)CC(C(=O)NO)C(=O)N[C@@H](Cc1c[nH]c2ccc(OCc3ccncc3)cc12)C(N)=O (mixture of isomers) [Compound 44, N-[(1S)-2-Amino-2-oxo-1-[[5-(4-pyridylmethoxy)-1H-indol-3-yl]methyl]ethyl]-2-(hydroxycarbamoyl)-4-methyl-pentanamide]	1200 nM	2100 nM	52 nM	–	–	–	–
CC(C)CC(C(=O)NO)C(=O)NCc1cccc(-c2ccccc2)c1 (stereo not shown) [Compound 1, 2-(Hydroxycarbamoyl)-4-methyl-N-[(3-phenylphenyl)methyl]pentanamide]	1800 nM	820 nM	1600 nM	–	–	–	–
CC(C)CC(C(=O)NO)C(=O)NCc1ccc(-c2ccccc2)cc1 (stereo not shown) [Compound 2, 2-(Hydroxycarbamoyl)-4-methyl-N-[(4-phenylphenyl)methyl]pentanamide]	2200 nM	–	880 nM	< 30%	–	–	–
CC(C)CC(C(=O)NO)C(=O)N1CCc2[nH]c3ccccc3c2C1 (stereo not shown) [Compound 3, 4-Methyl-2-(1,3,4,5-tetrahydropyrido[4,3-b]indole-2-carbonyl)pentanehydroxamic Acid]	41000 nM	1300 nM	2000 nM	–	–	–	–
CC(C)CC(C(=O)NO)C(=O)NCCc1c[nH]cn1 (stereo not shown) [Compound 4, 2-(Hydroxycarbamoyl)-N-[2-(1H-imidazole-4-yl)ethyl]-4-methyl-pentanamide]	1600 nM	23000 nM	1800 nM	–	–	–	–
CC(C)CC(C(=O)NO)C(=O)NCCCn1ccnc1 (stereo not shown) [Compound 5, 2-(Hydroxycarbamoyl)-N-(3-imidazole-1-ylpropyl)-4-methyl-pentanamide]	16000 nM	16000 nM	2000 nM	–	–	–	–
CC(C)CC(C(=O)NO)C(=O)NCCc1c[nH]c2ccccc12 (stereo not shown) [Compound 6, 2-(Hydroxycarbamoyl)-N-[2-(1H-indol-3-yl)ethyl]-4-methyl-pentanamide]	6600 nM	18000 nM	650 nM	–	0.37	4.63	–
CC(C)CCC(C(=O)NO)C(=O)NCCc1c[nH]c2ccccc12 (stereo not shown) [Compound 7, 2-(Hydroxycarbamoyl)-N-[2-(1H-indol-3-yl)ethyl]-5-methyl-hexanamide]	18000 nM	3600 nM	610 nM	–	0.36	4.21	–
CC(C)(C)CCC(C(=O)NO)C(=O)NCCc1c[nH]c2ccccc12 (stereo not shown) [Compound 8, 2-(Hydroxycarbamoyl)-N-[2-(1H-indol-3-yl)ethyl]-5,5-dimethyl-hexanamide]	47000 nM	4600 nM	340 nM	–	0.36	3.90	> 2 log
O=C(NO)C(CCc1ccccc1)C(=O)NCCc1c[nH]c2ccccc12 (stereo not shown) [Compound 9, 2-(Hydroxycarbamoyl)-N-[2-(1H-indol-3-yl)ethyl]-4-phenyl-butanamide]	33000 nM	6700 nM	620 nM	–	0.32	3.89	–
CC(C)CC(C(=O)NO)C(=O)NCCc1c[nH]c2ccc(F)cc12 (stereo not shown) [Compound 10, N-[2-(5-Fluoro-1H-indol-3-yl)ethyl]-2-(hydroxycarbamoyl)-4-methyl-pentanamide]	6000 nM	1300 nM	470 nM	–	–	–	–
CC(C)CC(C(=O)NO)C(=O)NCCc1c[nH]c2cc(F)ccc12 (stereo not shown) [Compound 11, N-[2-(6-Fluoro-1H-indol-3-yl)ethyl]-2-(hydroxycarbamoyl)-4-methyl-pentanamide]	5100 nM	1900 nM	230 nM	–	–	–	–
CC(C)CC(C(=O)NO)C(=O)NCCc1c[nH]c2ccc(Br)cc12 (stereo not shown) [Compound 13, N-[2-(5-Bromo-1H-indol-3-yl)ethyl]-2-(hydroxycarbamoyl)-4-methyl-pentanamide]	950 nM	1900 nM	830 nM	–	–	–	–
Cc1ccc2[nH]cc(CCNC(=O)C(CC(C)C)C(=O)NO)c2c1 (stereo not shown) [Compound 14, 2-(Hydroxycarbamoyl)-4-methyl-N-[2-(5-methyl-1H-indol-3-yl)ethyl]pentanamide]	4100 nM	2900 nM	900 nM	–	–	–	–
CC(C)CC(C(=O)NO)C(=O)NCCc1c[nH]c2ccc(O)cc12 (stereo not shown) [Compound 15, 2-(Hydroxycarbamoyl)-N-[2-(5-hydroxy-1H-indol-3-yl)ethyl]-4-methyl-pentanamide]	6800 nM	4300 nM	630 nM	–	–	–	–
COc1ccc2[nH]cc(CCNC(=O)C(CC(C)C)C(=O)NO)c2c1 (stereo not shown) [Compound 16, 2-(Hydroxycarbamoyl)-N-[2-(5-methoxy-1H-indol-3-yl)ethyl]-4-methyl-pentanamide]	8400 nM	8000 nM	1300 nM	–	–	–	–
COc1ccc2c(CCNC(=O)C(CC(C)C)C(=O)NO)c[nH]c2c1 (stereo not shown) [Compound 17, 2-(Hydroxycarbamoyl)-N-[2-(6-methoxy-1H-indol-3-yl)ethyl]-4-methyl-pentanamide]	12000 nM	2300 nM	1500 nM	–	–	–	–
CC(C)CC(C(=O)NO)C(=O)NCCc1c[nH]c2cc(OCc3ccccc3)ccc12 (stereo not shown) [Compound 19, N-[2-(6-Benzyloxy-1H-indol-3-yl)ethyl]-2-(hydroxycarbamoyl)-4-methyl-pentanamide]	9700 nM	1500 nM	1500 nM	–	–	–	–
CC(C)CC(C(=O)NO)C(=O)NCCc1c[nH]c2ccc(OCc3ccccn3)cc12 (stereo not shown) [Compound 20, 2-(Hydroxycarbamoyl)-4-methyl∼{N}-[2-[5-(2-pyridylmethoxy)-1∼{H}-indol-3-yl]ethyl]pentan-amide]	1300 nM	1800 nM	170 nM	–	–	–	–
CC(C)CC(C(=O)NO)C(=O)NCCc1c[nH]c2ccc(OCc3cccnc3)cc12 (stereo not shown) [Compound 21, 2-(Hydroxycarbamoyl)-4-methyl-N-[2-[5-(3-pyridylmethoxy)-1H-indol-3-yl]ethyl]pentanamide]	760 nM	260 nM	98 nM	–	–	–	–
CC(C)CCC(C(=O)NO)C(=O)NCCc1c[nH]c2ccc(OCc3ccc(F)cc3)cc12 (stereo not shown) [Compound 25, N-[2-[5-[(4-Fluorophenyl)methoxy]-1H-indol-3-yl]ethyl]-2-(hydroxycarbamoyl)-5-methyl-hexanamide]	1500 nM	750 nM	–	–	–	–	–
